# Where “and” joins values, the source holds several entries; their conditions need not be identical. Equal values may be shown once.
# Tested on: 885724-159-R-J1-PDC KRAS PDC multicell spheroid viability
# Experiment: Anticancer human tumor 885724-159-R-J1-PDC patient-derived pancreatic adenocarcinoma cell line growth inhibition [KRAS2]
# Details: for viability, T/C: stronger effect = lower value
# Description: Multicellular complex tumor spheroid response to RAS pathway inhibitors in combination with a targeted agents in patient-derived cell lines with oncogenic KRAS variants from multiple cancer types
# A high-throughput screen of multi-cell type tumor spheroids was designed to identify active combinations of targeted small molecules and KRAS pathway inhibitors. Complex spheroids include a stromal component modeled by human endothelial cells (HUVEC) and fibroblasts modeled by human mesenchymal stem cells (MSCs). The concentration ranges selected for each drug and investigational agent were based upon clinically achievable concentrations if the clinical Cmax of the agent was known.
# Compounds. The drugs and investigational agents: BI-3406 (NSC825286), BAY-293 (NSC824723), batoprotafib (TNO155; NSC825523), sotorasib (AMG 510; NSC818433), MRTX1257 (NSC819558), elimusertib (BAY 1895344; NSC800525), molibresib (GSK525762; NSC774829), temuterkib (LY3214996; NSC803410), venetoclax (NSC766270), alisertib (NSC759677), olaparib (NSC753686), talazoparib (NSC767125), erdafitinib (NSC781556), ipatasertib (NSC767898), cabozantinib (NSC761068), nintedanib (NSC756659), abemaciclib (NSC768073), docetaxel (NSC628503), trametinib (NSC758246), and sapanisertib (NSC764658) were obtained from the National Cancer Institute (NCI) Developmental Therapeutics Program Chemical Repository. The FDA-approved anticancer drug set is available from the Developmental Therapeutics Program. […] The stock solutions were prepared in dimethyl sulfoxide (DMSO, Sigma-Aldrich, St. Louis, MO, cat. D2650) at 800-fold the tested concentration and stored at -70 degrees C prior to their use. All drugs and investigational agents were tested over a range starting from a high concentration at or near the clinical Cmax and decreasing in half-log increments. If the clinical Cmax for an agent had not been determined, the highest concentration tested was 10 microM.
# Cell Culture. All cells were maintained in an incubator at 37 degrees C and 5% CO2 with 95% humidity. The PDC lines were cultured according to standard operating procedures established by the NCI PDMR (https://pdmr.cancer.gov/sops/default.htm). Briefly, all PDCs were thawed and cultured in Matrigel-coated flasks prepared with a working solution of 1X Ham's F-12 nutrient mix, without supplementation (Invitrogen, Waltham, MA, cat. 11765054), 100 U/mL penicillin-streptomycin (Invitrogen, cat. 15140122), and 2.5% Matrigel (Corning Inc., Corning, NY, cat. 354248) for the first three passages. All PDCs were cultured in complete DMEM/F-12 media containing advanced DMEM/F-12 (Invitrogen, cat. 12634028), 4.9% defined fetal bovine serum, heat inactivated (HyClone Laboratories Inc., Logan, UT, cat. SH30070.03HI), 389 ng/mL hydrocortisone (Sigma-Aldrich, cat. H4001), 9.7 ng/mL human EGF recombinant protein (Invitrogen, cat. PHG0313), 23.4 microg/mL adenine (Sigma-Aldrich, cat. A2786), 97.3 U/mL penicillin-streptomycin (Invitrogen, cat. 15140122), 1.9 mM L-glutamine (Invitrogen, cat. 25030081), and 9.7 microM Y-27632 dihydrochloride (Tocris Bioscience, Bristol, United Kingdom, cat. 1254). The PDCs were cultured in complete DMEM/F12 media without 9.7 microM Y-27632 dihydrochloride for at least two passages prior to the screen. The established cell line HOP-62 was cultured in RPMI 1640 medium, HEPES (Invitrogen, cat. 22400105) with 10% defined fetal bovine serum (HyClone Laboratories Inc., cat. SH30070.03) and 2 mM L-glutamine (Invitrogen, cat. 25030081). The pooled donor HUVEC were cultured in endothelial cell growth medium 2 (PromoCell, Heidelberg, Germany, cat. C-22011) and the hMSC were cultured in mesenchymal stem cell growth medium 2 (PromoCell, cat. C-28009). For all experiments, HUVEC and hMSC were used at passages </=5, while the malignant cell lines were used at passages </=15. […]
# [1] = compound alone, run of 08/19/2021
# [2] = compound alone, run of 08/26/2021
# [3] = compound alone, run of 09/02/2021
# 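Note: spheroids exposed to agents for 7 days before readout.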
Structure (SMILES),"viability, T/C (compound 0.0316 µM)","viability, T/C (compound 0.316 µM)",IC50 [1],IC50 [2],IC50 [3],"viability, T/C (compound 0.0001 µM)","viability, T/C (compound 0.000316 µM)","viability, T/C (compound 0.001 µM)","viability, T/C (compound 0.00316 µM)","viability, T/C (compound 0.01 µM)",IC50 (curve of compound),"viability, T/C (compound 0.1 µM)","viability, T/C (compound 1 µM)","viability, T/C (compound 3.16 µM)","viability, T/C (compound 10 µM)"
C=CC(=O)N1CCN(c2nc(OCC3CCCN3C)nc3c2CCN(c2cccc4cccc(C)c24)C3)CC1CC#N (stereo not drawn),103% [middle of 17 runs],94.9% [middle of 17 runs],> 3.16 µM and 2.89 µM and 2.93 µM,> 3.16 µM and 3.06 µM,> 3.16 µM and 2.96 µM and 2.89 µM,–,–,–,–,–,–,–,–,–,–
CC(=O)Nc1cccc(-n2c(=O)n(C3CC3)c(=O)c3c(Nc4ccc(I)cc4F)n(C)c(=O)c(C)c32)c1,18.6% [middle of 5 runs],–,–,–,–,89.6% [middle of 5 runs],68.2% [middle of 5 runs],49.6% [middle of 5 runs],36.5% [middle of 5 runs],25.7% [middle of 5 runs],0.966 nM [middle of 5 runs],–,–,–,–
CC(=O)OC12COC1CC(O)C1(C)C(=O)C(O)C3=C(C)C(OC(=O)C(O)C(NC(=O)OC(C)(C)C)c4ccccc4)CC(O)(C(OC(=O)c4ccccc4)C21)C3(C)C (stereo not drawn),93.2% [middle of 5 runs],–,–,–,–,–,–,–,–,88.4% [middle of 5 runs],> 3.16 µM,102% [middle of 5 runs],112% [middle of 5 runs],–,–
CC(C)NCC(C(=O)N1CCN(c2ncnc3c2C(C)CC3O)CC1)c1ccc(Cl)cc1 (stereo not drawn),95.8% [middle of 5 runs],75.3% [middle of 5 runs],–,–,–,–,–,–,–,–,> 10 µM,83.2% [middle of 5 runs],75.9% [middle of 5 runs],84.6% [middle of 5 runs],56.9% [middle of 5 runs]
CC(C)n1nc(-c2ccc3oc(N)nc3c2)c2c(N)ncnc21,51% [middle of 5 runs],–,–,–,–,–,95.6% [middle of 5 runs],74.4% [middle of 5 runs],65.9% [middle of 5 runs],61.9% [middle of 5 runs],–,46.5% [middle of 5 runs],–,–,–
CC1(C)CCC(CN2CCN(c3ccc(C(=O)NS(=O)(=O)c4ccc(NCC5CCOCC5)c([N+](=O)[O-])c4)c(Oc4cnc5[nH]ccc5c4)c3)CC2)=C(c2ccc(Cl)cc2)C1,100% [middle of 5 runs],100% [middle of 5 runs],–,–,–,–,–,–,–,–,9.05 µM [middle of 5 runs],103% [middle of 5 runs],97.1% [middle of 5 runs],–,–
CC1COCCN1c1cc(-c2ccnn2C)c2ccnc(-c3ccn[nH]3)c2n1 (stereo not drawn),90.6% [middle of 5 runs],62.3% [middle of 5 runs],–,–,–,–,–,–,–,107% [middle of 5 runs],> 3.16 µM,69.9% [middle of 5 runs],56.6% [middle of 5 runs],58.2% [middle of 5 runs],–
CC1OCC2(CCN(c3cnc(Sc4ccnc(N)c4Cl)c(N)n3)CC2)C1N (stereo not drawn),99.7% and 101% and 102%,–,> 10 µM,> 10 µM,> 10 µM,–,–,–,–,–,> 10 µM,92.4% [middle of 19 runs],–,71.4% [middle of 20 runs],–
CCN1CCN(Cc2ccc(Nc3ncc(F)c(-c4cc(F)c5nc(C)n(C(C)C)c5c4)n3)nc2)CC1,89.9% [middle of 5 runs],92.5% [middle of 5 runs],–,–,–,–,–,–,108% (2×) and 101% and 103% (2×),100% [middle of 5 runs],> 1 µM,88.7% [middle of 5 runs],94% [middle of 5 runs],–,–
CCNC(=O)CC1N=C(c2ccc(Cl)cc2)c2cc(OC)ccc2-n2c(C)nnc21 (stereo not drawn),112% [middle of 5 runs],78.4% [middle of 5 runs],–,–,–,–,–,–,–,–,> 10 µM and 8.28 µM,102% [middle of 5 runs],66.7% [middle of 5 runs],59.7% [middle of 5 runs],51.8% [middle of 5 runs]
CN(C)C/C=C/C(=O)Nc1cc2c(Nc3ccc(F)c(Cl)c3)ncnc2cc1O[C@H]1CCOC1,81.5% [middle of 5 runs],–,–,–,–,–,107% [middle of 5 runs],104% [middle of 5 runs],–,95.3% [middle of 5 runs],> 0.1 µM,77.5% [middle of 5 runs],–,–,–
COC(=O)c1ccc2c(C(=Nc3ccc(N(C)C(=O)CN4CCN(C)CC4)cc3)c3ccccc3)c(O)[nH]c2c1,99.8% [middle of 5 runs],98.2% [middle of 5 runs],–,–,–,–,–,–,–,–,2.26 µM [middle of 5 runs],103% [middle of 5 runs],103% [middle of 5 runs],29.4% [middle of 5 runs],0.61% [middle of 5 runs]
COc1cc(Nc2ncc3c(n2)-c2ccc(Cl)cc2C(c2c(F)cccc2OC)=NC3)ccc1C(=O)O,93.8% [middle of 5 runs],88.7% [middle of 5 runs],–,–,–,–,–,–,–,–,> 10 µM,89.1% [middle of 5 runs],90% [middle of 5 runs],96.2% [middle of 5 runs],98.4% [middle of 5 runs]
COc1cc(OC)cc(N(CCNC(C)C)c2ccc3ncc(-c4cnn(C)c4)nc3c2)c1,103% [middle of 5 runs],109% [middle of 5 runs],–,–,–,–,–,–,–,–,6.96 µM [middle of 5 runs],104% [middle of 5 runs],121% [middle of 5 runs],142% [middle of 5 runs],16.8% [middle of 5 runs]
COc1cc2nccc(Oc3ccc(NC(=O)C4(C(=O)Nc5ccc(F)cc5)CC4)cc3)c2cc1OC,111% [middle of 5 runs],110% [middle of 5 runs],–,–,–,–,–,–,–,–,> 10 µM,108% [middle of 5 runs],102% [middle of 5 runs],74.1% [middle of 5 runs],70.5% [middle of 5 runs]
Cn1nccc1Nc1nccc(-c2cc3c(s2)C(C)(C)N(CCN2CCOCC2)C3=O)n1,99.9% and 99.7%,59.1% and 65.2%,–,–,–,–,–,–,–,–,0.665 µM and 0.799 µM,86.3% and 84.2%,45.5% and 45.8%,35.7% and 37.9%,31.1% and 35.9%
Cn1ncnc1[C@H]1c2n[nH]c(=O)c3cc(F)cc(c23)N[C@@H]1c1ccc(F)cc1,96.2% [middle of 5 runs],–,–,–,–,–,102% [middle of 5 runs],102% [middle of 5 runs],97.3% [middle of 5 runs],98.2% [middle of 5 runs],> 0.1 µM,91% [middle of 5 runs],–,–,–
O=C(c1cc(Cc2n[nH]c(=O)c3ccccc23)ccc1F)N1CCN(C(=O)C2CC2)CC1,104% [middle of 5 runs],105% [middle of 5 runs],–,–,–,–,–,–,–,–,> 10 µM,106% [middle of 5 runs],106% [middle of 5 runs],101% [middle of 5 runs],82.5% [middle of 5 runs]

# From PubChem BioAssay AID1963861 (Molecular Pharmacology Branch, DTP, NCI, 2024)
